Measured values as given in patent US6875761B2 (Eisai Co., Ltd., priority 1997, dated 2005).
Counter-ions that a name gives are not always drawn.

How the values were obtained:
serotonin 1A receptor = biological target: T1, serotonin 1A receptor (Rattus norvegicus, UniProt P19327); experiment: Binding test on [3H] 8-hydroxy-dipropylaminotetralin, hippocampus receptor fraction; set-up: species or system SD rats; conditions: rat hippocampus receptor fraction, 0.5 nM [3H] 8-OH-DPAT, room temperature 30 min; read-out: 5HT1
T1 construct: To the receptor fraction of the hippocampus were added a test compound and 0.5 nM of [^3H]; 8-hydroxy-dipropylaminotetralin; from tissue; host or cells: rat hippocampus membrane fraction
T1 sequence (P19327 1-422): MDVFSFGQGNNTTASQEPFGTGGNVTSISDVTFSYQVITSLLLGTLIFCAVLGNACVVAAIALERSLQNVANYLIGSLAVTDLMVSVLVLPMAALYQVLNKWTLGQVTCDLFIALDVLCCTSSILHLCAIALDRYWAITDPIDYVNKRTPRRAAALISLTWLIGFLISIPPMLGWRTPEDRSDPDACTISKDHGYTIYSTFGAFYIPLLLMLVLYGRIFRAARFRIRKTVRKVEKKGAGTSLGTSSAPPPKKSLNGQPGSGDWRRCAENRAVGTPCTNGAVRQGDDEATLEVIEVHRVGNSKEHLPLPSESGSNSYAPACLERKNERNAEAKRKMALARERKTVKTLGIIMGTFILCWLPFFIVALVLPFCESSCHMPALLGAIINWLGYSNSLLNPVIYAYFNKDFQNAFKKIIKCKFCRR

serotonin 2 receptor = biological target: T2, serotonin 2 receptor (Rattus norvegicus, UniProt P14842); experiment: Binding test on [3H] ketanserin, cerebral cortex receptor fraction; set-up: species or system SD rats; conditions: 0.3 nM [3H] ketanserin, 37° C. 15 min, read-out: 5HT2
T2 construct: To the receptor fraction of the cerebral cortex were added a test compound and 0.3 nM of [^3H] ketanserin; from tissue; host or cells: rat cerebral cortex membrane fraction
T2 sequence (P14842 whole entry): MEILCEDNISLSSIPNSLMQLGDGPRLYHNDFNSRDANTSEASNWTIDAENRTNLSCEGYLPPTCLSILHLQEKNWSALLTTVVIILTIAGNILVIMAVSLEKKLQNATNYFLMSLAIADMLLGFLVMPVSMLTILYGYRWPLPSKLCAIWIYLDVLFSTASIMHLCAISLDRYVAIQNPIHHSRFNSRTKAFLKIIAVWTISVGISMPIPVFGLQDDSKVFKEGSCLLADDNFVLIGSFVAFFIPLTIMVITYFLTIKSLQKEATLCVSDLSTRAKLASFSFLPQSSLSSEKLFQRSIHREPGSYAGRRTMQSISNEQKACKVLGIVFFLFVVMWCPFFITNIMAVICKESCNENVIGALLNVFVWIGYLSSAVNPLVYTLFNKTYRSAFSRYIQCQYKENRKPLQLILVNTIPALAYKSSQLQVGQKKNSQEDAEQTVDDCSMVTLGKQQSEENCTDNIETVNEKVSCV

| Ki (serotonin 1A receptor) | Ki (serotonin 2 receptor) | Structure (SMILES) |
| --- | --- | --- |
| 0.0621 µM | 0.0049 µM | CCN1CCN(c2nc(-c3ccc(OCCCSC)cc3)cc3ccccc23)CC1 [Example 54, 3-[4-(3-Methylthiopropoxy)Phenyl]-1-(4-Ethylpiperazin-1-Yl)Isoquinoline Hydrochloride] |
| 0.00698 µM | 0.0209 µM | CCN1CCN(c2nc(-c3ccc(O[C@H](C)CO)cc3)cc3sccc23)CC1 (stereo in doubt) [Example 463, 4-(4-ethylpiperazin-1-yl)-6-[4-(2-hydroxy-1-methylethoxy)phenyl]thieno[3,2-c]pyridine dihydrochloride] |
| 0.0036 µM | 0.0128 µM | CCN1CCN(c2nc(-c3ccc(C(O)C(C)(C)CO)cc3)cc3ccccc23)CC1 (centres unmarked) [Example 391, 1-(4-Ethylpiperazin-1-yl)-3-[4-(1,3-Dihydroxy-2,2-Dimethylpropyl)Phenyl]Isoquinoline Dihydrochloride] |
| 0.0064 µM | 0.0191 µM | CCCN(C)S(=O)(=O)c1ccc(-c2cc3ccccc3c(N3CCN(CC)CC3)n2)cc1 [Example 358, 1-(4-ethylpiperazin-1-yl)-3-[4-(N-methyl-N-propylsulfamoyl)phenyl]isoquinoline dihydrochloride] |
| 0.00037 µM | 0.0301 µM | CCN1CCN(c2nc(-c3ccc(CCCO)cc3)cc3ccoc23)CC1 [Example 299, 7-(1-ethylpiperazin-4-yl)-5-[4-(3-hydroxypropyl)phenyl]furo[2,3-c]pyridine dihydrochloride] |
| 0.087 µM | 0.0085 µM | CCN1CCN(c2nc(-c3ccc(C4=CCC(O)CC4)cc3)cc3ccccc23)CC1 (centres unmarked) [Example 64, 3-[4-(4-Hydroxy-1-Cyclohexen-1-Yl)Phenyl]-1-(4-Ethylpiperazin-1-Yl)Isoquinoline Hydrochloride] |
| 0.0318 µM | 0.0417 µM | CCN1CCN(c2nc(-c3ccc(C(=O)NCCO)cc3)cc3ccccc23)CC1 [Example 346, 1-(4-ethylpiperazin-1-yl)-3-{4-(N-(2-hydroxyethyl)carbamoyl]phenyl}isoquinoline dihydrochloride] |
| 0.0756 µM | 0.0043 µM | CCN1CCN(c2nc(-c3ccc(C4CCOCC4)cc3)cc3ccccc23)CC1 [Example 83, 3-[4-(Tetrahydropyran-4-yl)phenyl]-1-(4-ethylpiperazin-1-yl)isoquinoline Hydrochloride] |
| 0.0094 µM | 0.0117 µM | CCCNC(=O)Cc1ccc(-c2cc3ccccc3c(N3CCN(CC)CC3)n2)cc1 [Example 88, 3-(4-Propylaminocarbonylmethylphenyl)-1-(4-ethylpiperazin-1-yl)isoquinoline Hydrochloride] |
| 0.0612 µM | 0.00178 µM | CCN1CCN(c2nc(-c3ccc(OCCCC#N)cc3)cc3ccccc23)CC1 [Example 53, 3-[4-(3-Cyanopropoxy)Phenyl]-1-(4-Ethylpiperazin-1-Yl)Isoquinoline Hydrochloride] |
| 0.015 µM | 0.0036 µM | CCCS(=O)(=O)Nc1ccc(-c2cc3ccccc3c(N3CCN(CC)CC3)n2)cc1 [Example 72, 3-(4-Propylsulfonylaminophenyl)-1-(4-Ethylpiperazin-1-Yl)Isoquinoline Hydrochloride] |
| 0.0154 µM | 0.0194 µM | CCN1CCN(c2nc(-c3ccc(OCC(C)O)cc3)cc3ccoc23)CC1 (stereo in doubt) [Example 304, 7-(1-ethylpiperazin-4-yl)-5-[4-[(S)-2-hydroxypropoxy]phenyl)furo[2,3-c]pyridine dihydrochloride] |
| 0.0247 µM | 0.0351 µM | CCN1CCN(c2nc(-c3cccc(OCCO)c3)cc3ccsc23)CC1 [Example 258, 7-(1-ethylpiperazin-4-yl)-5-[3-(2-hydroxyethoxy)phenyl]thieno[2,3-c]pyridine Dihydrochloride] |
| 0.0372 µM | 0.00044 µM | CCN1CCN(c2nc(/C=C/c3ccccc3)cc3ccccc23)CC1 [Example 189, 1-(1-Ethylpiperazin-4-Yl)-3-(Trans-2-Phenylethenyl)Isoquinoline Dihydrochloride] |
| 0.0616 µM | 0.0027 µM | CCN1CCN(c2nc(-c3ccc(N4CCC(OC)CC4)cc3)cc3ccccc23)CC1 [Example 98, 1-(4-Ethylpiperazin-1-yl)-3-[4-(4-methoxypiperidin-1-yl)phenyl]isoquinoline Trihydrochloride] |
| 0.0597 µM | 0.0292 µM | CCCCC(O)c1ccc(-c2cc3ccsc3c(N3CCN(CC)CC3)n2)cc1 (centres unmarked) [Example 254, 7-(1-ethylpiperazin-4-yl)-5-[4-(1-hydroxypentyl)phenyl]thieno[2,3-c]pyridine Dihydrochloride] |
| 0.0206 µM | 0.0931 µM | CCN1CCN(c2nc(-c3ccc(OC)cc3)cc3ccoc23)CC1 [Example 467, 7-(4-ethylpiperazin-1-yl)-5-(4-methoxyphenyl)furo[2,3-c]pyridine dihydrochloride] |
| 0.0257 µM | 0.0056 µM | CCN1CCN(c2nc(-c3ccc(OCC(O)CO)cc3)cc3ccccc23)CC1 (centres unmarked) [Example 337, 1-(4-ethylpiperazin-1-yl)-3-[4-(2,3-dihydroxypropoxy)phenyl]isoquinoline dihydrochloride] |
| 0.026 µM | 0.0207 µM | CCN1CCN(c2nc(-c3ccc(OCCO)c(OC)c3)cc3ccccc23)CC1 [Example 340, 1-(4-ethylpiperazin-1-yl)-3-[4-(2-hydroxyethoxy)-3-methoxyphenyl]isoquinoline dihydrochloride] |
| 0.0442 µM | 0.00603 µM | CCN1CCN(c2nc(-c3ccc(CCC(C)(C)O)cc3)cc3ccsc23)CC1 [Example 439, 7-(4-ethylpiperazin-1-yl)-5-[4-(3-hydroxy-3-methylbutyl)phenyl]thieno[2,3-c]pyridine dihydrochloride] |
| 0.0033 µM | 0.0152 µM | CCOCCCc1ccc(-c2cc3ccccc3c(N3CCN(CC)CC3)n2)cn1 [Example 142, 1-(1-Ethylpiperazin-4-yl)-3-[2-(3-Ethoxypropyl)Pyridin-5-yl]Isoquinoline Oxalate] |
| 0.0432 µM | 0.012 µM | CCN1CCN(c2nc(-c3ccc(SC[C@@H](C)O)cc3)cc3ccsc23)CC1 [Example 444, 7-(4-ethylpiperazin-1-yl)-5-[4-(2-hydroxypropylthio)phenyl]thieno[2,3-c]pyridine dihydrochloride] |
| 0.0166 µM | 0.0155 µM | CCN1CCN(c2nc(/C=C/c3cncc(N4CCOCC4)n3)cc3ccccc23)CC1 [Example 216, 3-{(E)-2-[2-(4-morpholinyl)pyrazin-6-yl]ethenyl}-1-(4-ethylpiperazin-1-yl)isoquinoline oxalate] |
| 0.0074 µM | 0.0034 µM | CCN1CCN(c2nc(-c3ccc(C(C)CCO)cc3)cc3ccccc23)CC1 (centres unmarked) [Example 383, 1-(4-Ethylpiperazin-1-yl)-3-[4-(3-Hydroxy-1-Methylpropyl)Phenyl]Isoquinoline Oxalate] |
| 0.0089 µM | 0.0024 µM | CCN1CCN(c2nc(-c3ccc(CC(C)CO)cc3)cc3ccccc23)CC1 (centres unmarked) [Example 386, 1-(4-Ethylpiperazin-1-yl)-3-[4-(3-Hydroxy-2-Methylpropyl)Phenyl]Isoquinoline Oxalate] |
| 0.0195 µM | 0.0063 µM | CCN1CCN(c2nc(-c3ccc(CC(C)O)cc3)cc3ccccc23)CC1 (centres unmarked) [Example 376, 1-(4-ethylpiperazin-1-yl)-3-[4-(2-hydroxypropyl)phenyl]isoquinoline oxalate] |
| 0.00483 µM | 0.00284 µM | CCN1CCN(c2nc(-c3ccc(OCCCO)cc3)cc3sccc23)CC1 [Example 462, 4-(4-ethylpiperazin-1-yl)-6-[4-(3-hydroxypropoxy)phenyl]thieno[3,2-c]pyridine dihydrochloride] |

| Structure (SMILES) | Ki (serotonin 1A receptor) | Ki (serotonin 2 receptor) |
| --- | --- | --- |
| CCN1CCN(c2nc(-c3ccc(OCC(C)=O)cc3)cc3ccccc23)CC1 [Example 47, 1-(1-Ethylpiperazin-4-Yl)-3-(4-Acetonyloxyphenyl)Isoquinoline] | 0.0253 µM | 0.0026 µM |
| CCN1CCN(c2nc(-c3ccc(NC(C)=O)cc3)cc3ccccc23)CC1 [Example 68, 3-(4-Acetamidephenyl)-1-(4-Ethylpiperazin-1-Yl)Isoquinoline Hydrochloride] | 0.0309 µM | 0.0941 µM |
| CCN1CCN(c2nc(NS(=O)(=O)c3ccccc3)cc3ccccc23)CC1 [Example 422, 3-benzenesulfoneamide-1-(4-ethylpiperazin-1-yl)isoquinoline] | 0.00532 µM | 0.175 µM |
| CCN1CCN(c2nc(-c3ccc(S(N)(=O)=O)cc3)cc3ccccc23)CC1 [Example 74, 3-(4-Sulfonamidephenyl)-1-(4-Ethylpiperazin-1-Yl)Isoquinoline Hydrochloride] | 0.0046 µM | 0.0077 µM |
| CCN1CCN(c2nc(CCc3cccc(OCCO)c3)cc3ccccc23)CC1 [Example 108, 1-(1-Ethylpiperazin-4-yl)-3-[3-(2-hydroxyethoxy)phenethyl]isoquinoline] | 0.157 µM | 0.0338 µM |
| CCN1CCN(c2nc(/C=C/Cc3ccccc3OC)cc3ccccc23)CC1 [Example 211] | 0.00517 µM | 0.0402 µM |
| CCN1CCN(c2nc(-c3ccc(OCCO)cc3OC)cc3ccccc23)CC1 [Example 425, 1-(4-ethylpiperazin-1-yl)-3-[4-(2-hydroxyethoxy)-2-methoxyphenyl]isoquinoline] | 0.321 µM | 0.00255 µM |
